Experimental data: patent publication US20110130384A1, “AMIDE COMPOUND” (TAKEDA PHARMACEUTICAL COMPANY LIMITED, priority 2008, published 2011)

Target: T1, human GPR52 (Homo sapiens, UniProt Q9Y2T5)
T1 construct: expressed in transfected cells; host or cells: CHO(dhfr-) cells
Assay: Increase of intracellular cAMP concentration in human GPR52-expressing CHO cell (AlphaScreen cAMP assay)
Assay type: cell-based
Details: 1 μM test compound, human GPR52-expressing CHO(dhfr-) cells, 37° C. for 30 min; intracellular cAMP with 1 μM Reference Example 124 = 100%, DMSO = 0%
Protocol: Increase of Intracellular cAMP Concentration in Human GPR52-Expressing CHO Cell
Using OptiPlate-384 (PerkinElmer Inc.), 1×10^4 human GPR52-expressing CHO(dhfr-) cells were incubated together with 1 μM of a test compound in an assay buffer (30 μL, HBSS (containing Ca^2+ and Mg^2+), 0.5% BSA, 100 μm IBMX, 100 μm Ro20-1724, 5 mM HEPES (pH 7.55)) at 37° C. for 30 min. Thereafter, according to the protocol of AlphaScreen cAMP Assay Kit (PerkinElmer Inc.), the intracellular cAMP concentration was measured by EnVision (PerkinElmer Inc.). The GPR52 agonist activity was calculated, assuming the intracellular cAMP concentration in the presence of 1 μM 3-(6-(2-(3,4-dimethoxyphenyl)ethoxy)pyridin-2-yl)-N-(2-pyrrolidin-1-ylethyl)benzamide (Reference Example 124) to be 100% and assuming the intracellular cAMP concentration when DMSO was added instead of the test compound to be 0%.

T1 sequence (Q9Y2T5 whole entry): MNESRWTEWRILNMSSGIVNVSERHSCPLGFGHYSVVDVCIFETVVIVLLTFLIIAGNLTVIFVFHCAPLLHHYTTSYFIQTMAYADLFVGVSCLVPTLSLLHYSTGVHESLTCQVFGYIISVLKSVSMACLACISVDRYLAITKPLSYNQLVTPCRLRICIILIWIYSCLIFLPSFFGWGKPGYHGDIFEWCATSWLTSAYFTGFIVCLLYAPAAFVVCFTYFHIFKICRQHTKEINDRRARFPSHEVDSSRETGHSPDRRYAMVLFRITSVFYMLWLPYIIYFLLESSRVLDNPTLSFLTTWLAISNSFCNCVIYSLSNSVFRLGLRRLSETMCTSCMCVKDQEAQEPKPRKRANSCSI

Row | Structure (SMILES) | GPR52 agonist activity (%)
1 | N#CCCNC(=O)c1cccc(-c2ccc3c(c2)C(c2ccc(Cl)cc2Cl)CC3)c1 (single isomer, unassigned; (+)) [Example 63, (+)-N-(2-cyanoethyl)-3-[3-(2,4-dichlorophenyl)-2,3-dihydro-1H-inden-5-yl]benzamide] | 66%
2 | N#CCCNC(=O)c1cccc(-c2ccc3c(c2)C(c2ccc(Cl)cc2Cl)CC3)c1 (single isomer, unassigned; (-)) [Example 62, (−)-N-(2-cyanoethyl)-3-[3-(2,4-dichlorophenyl)-2,3-dihydro-1H-inden-5-yl]benzamide] | 81%
3 | CN(C)CCNC(=O)c1cccc(-c2ccc3c(c2)N(c2ccc(Cl)cc2Cl)CC3)c1 [Example 1, 3-[1-(2,4-dichlorophenyl)-2,3-dihydro-1H-indol-6-yl]-N-[2-(dimethylamino)ethyl]benzamide] | 87%
4 | N#CCCNC(=O)c1cccc(-c2ccc3c(c2)N(c2ccc(Cl)cc2Cl)CC3)c1 [Example 2, N-(2-cyanoethyl)-3-[1-(2,4-dichlorophenyl)-2,3-dihydro-1H-indol-6-yl]benzamide] | 69%
5 | O=C(NCCO)c1cccc(-c2ccc3c(c2)N(c2ccc(Cl)cc2Cl)CC3)c1 [Example 3, 3-[1-(2,4-dichlorophenyl)-2,3-dihydro-1H-indol-6-yl]-N-(2-hydroxyethyl)benzamide] | 71%
6 | N#CCCNC(=O)c1cccc(-c2ccc3c(c2)N(c2cc(Cl)ccc2Cl)CC3)c1 [Example 4, N-(2-cyanoethyl)-3-[1-(2,5-dichlorophenyl)-2,3-dihydro-1H-indol-6-yl]benzamide] | 75%
7 | O=C(NCCO)c1cccc(-c2ccc3c(c2)N(c2cc(Cl)ccc2Cl)CC3)c1 [Example 5, 3-[1-(2,5-dichlorophenyl)-2,3-dihydro-1H-indol-6-yl]-N-(2-hydroxyethyl)benzamide] | 75%
8 | N#CCCNC(=O)c1cccc(-c2ccc3c(c2)N(c2ccc(Cl)c(Cl)c2)CC3)c1 [Example 6, N-(2-cyanoethyl)-3-[1-(3,4-dichlorophenyl)-2,3-dihydro-1H-indol-6-yl]benzamide] | 59%
9 | O=C(NCCO)c1cccc(-c2ccc3c(c2)N(c2ccc(Cl)c(Cl)c2)CC3)c1 [Example 7, 3-[1-(3,4-dichlorophenyl)-2,3-dihydro-1H-indol-6-yl]-N-(2-hydroxyethyl)benzamide] | 67%
10 | O=C(NCCO)c1cccc(-c2ccc3c(c2)N(c2cc(Cl)cc(Cl)c2)CC3)c1 [Example 9, 3-[1-(3,5-dichlorophenyl)-2,3-dihydro-1H-indol-6-yl]-N-(2-hydroxyethyl)benzamide] | 59%
11 | N#CCCNC(=O)c1cccc(-c2ccc3c(c2)N(c2cccc(Cl)c2Cl)CC3)c1 [Example 10, N-(2-cyanoethyl)-3-[1-(2,3-dichlorophenyl)-2,3-dihydro-1H-indol-6-yl]benzamide] | 65%
12 | O=C(NCCO)c1cccc(-c2ccc3c(c2)N(c2cccc(Cl)c2Cl)CC3)c1 [Example 11, 3-[1-(2,3-dichlorophenyl)-2,3-dihydro-1H-indol-6-yl]-N-(2-hydroxyethyl)benzamide] | 74%
13 | CN(C)CCNC(=O)c1cccc(-c2ccc3c(c2)N(Cc2ccc(Cl)cc2Cl)CC3)c1 [Example 12, 3-[1-(2,4-dichlorobenzyl)-2,3-dihydro-1H-indol-6-yl]-N-[2-(dimethylamino)ethyl]benzamide] | 89%
14 | N#CCCNC(=O)c1cccc(-c2ccc3c(c2)N(Cc2ccc(Cl)cc2Cl)CC3)c1 [Example 13, N-(2-cyanoethyl)-3-[1-(2,4-dichlorobenzyl)-2,3-dihydro-1H-indol-6-yl]benzamide] | 60%
15 | N#CCCNC(=O)c1cccc(-c2ccc3c(c2)N(Cc2cc(Cl)cc(Cl)c2)CC3)c1 [Example 15, N-(2-cyanoethyl)-3-[1-(3,5-dichlorobenzyl)-2,3-dihydro-1H-indol-6-yl]benzamide] | 77%
16 | O=C(NCCO)c1cccc(-c2ccc3c(c2)N(Cc2cc(Cl)cc(Cl)c2)CC3)c1 [Example 16, 3-[1-(3,5-dichlorobenzyl)-2,3-dihydro-1H-indol-6-yl]-N-(2-hydroxyethyl)benzamide] | 84%
17 | COc1ccc(CCn2ccc3ccc(-c4cccc(C(=O)NCCN(C)C)c4)nc32)cc1OC [Example 25, 3-[1-[2-(3,4-dimethoxyphenyl)ethyl]-1H-pyrrolo[2,3-b]pyridin-6-yl]-N-[2-(dimethylamino)ethyl]benzamide] | 80%

Row | Structure (SMILES) | GPR52 agonist activity (%)
18 | COc1ccc(CCn2ccc3ccc(-c4cccc(C(=O)NCCC#N)c4)nc32)cc1OC [Example 26, N-(2-cyanoethyl)-3-[1-[2-(3,4-dimethoxyphenyl)ethyl]-1H-pyrrolo[2,3-b]pyridin-6-yl]benzamide] | 62%
19 | O=C(NCCO)c1cccc(-c2ccc3ccn(Cc4ccc(Cl)cc4Cl)c3n2)c1 [Example 28, 3-[1-(2,4-dichlorobenzyl)-1H-pyrrolo[2,3-b]pyridin-6-yl]-N-(2-hydroxyethyl)benzamide] | 64%
20 | O=C(NCCO)c1cccc(-c2ccc3c(n2)N(Cc2ccc(Cl)cc2Cl)CC3)c1 [Example 29, 3-[1-(2,4-dichlorobenzyl)-2,3-dihydro-1H-pyrrolo[2,3-b]pyridin-6-yl]-N-(2-hydroxyethyl)benzamide] | 76%
21 | N#CCCNC(=O)c1cccc(-c2ccc3c(n2)N(Cc2ccc(Cl)cc2Cl)CC3)c1 [Example 30, N-(2-cyanoethyl)-3-[1-(2,4-dichlorobenzyl)-2,3-dihydro-1H-pyrrolo[2,3-b]pyridin-6-yl]benzamide] | 72%
22 | O=C(NCCCO)c1cccc(-c2ccc3c(n2)N(Cc2ccc(Cl)cc2Cl)CC3)c1 [Example 31, 3-[1-(2,4-dichlorobenzyl)-2,3-dihydro-1H-pyrrolo[2,3-b]pyridin-6-yl]-N-(3-hydroxypropyl)benzamide] | 62%
23 | O=C(NCCO)c1cccc(-c2ccc3ccn(-c4ccc(Cl)cc4Cl)c3n2)c1 [Example 33, 3-[1-(2,4-dichlorophenyl)-1H-pyrrolo[2,3-b]pyridin-6-yl]-N-(2-hydroxyethyl)benzamide] | 61%
24 | N#CCCNC(=O)c1cccc(-c2ccc3c(n2)N(c2ccc(Cl)cc2Cl)CC3)c1 [Example 34, N-(2-cyanoethyl)-3-[1-(2,4-dichlorophenyl)-2,3-dihydro-1H-pyrrolo[2,3-b]pyridin-6-yl]benzamide] | 74%
25 | O=C(NCCO)c1cccc(-c2ccc3c(n2)N(c2ccc(Cl)cc2Cl)CC3)c1 [Example 35, 3-[1-(2,4-dichlorophenyl)-2,3-dihydro-1H-pyrrolo[2,3-b]pyridin-6-yl]-N-(2-hydroxyethyl)benzamide] | 81%
26 | N#CCCNC(=O)c1cccc(-c2ncc3ccn(Cc4ccc(Cl)cc4Cl)c3n2)c1 [Example 40, N-(2-cyanoethyl)-3-[7-(2,4-dichlorobenzyl)-7H-pyrrolo[2,3-d]pyrimidin-2-yl]benzamide] | 52%
27 | COc1ccc(CCn2cnc3ccc(-c4cccc(C(=O)NCCN5CCCC5)c4)nc32)cc1OC [Example 45, 3-[3-[2-(3,4-dimethoxyphenyl)ethyl]-3H-imidazo[4,5-b]pyridin-5-yl]-N-(2-pyrrolidin-1-ylethyl)benzamide] | 79%
28 | N#CCCNC(=O)c1cccc(-c2ccc3c(c2)N(c2ccc(Cl)cc2Cl)CCO3)c1 [Example 47, N-(2-cyanoethyl)-3-[4-(2,4-dichlorophenyl)-3,4-dihydro-2H-1,4-benzoxazin-6-yl]benzamide] | 63%
29 | CN(C)CCNC(=O)c1cccc(-c2ccc3c(c2)C(c2cc(Cl)ccc2Cl)CC3)c1 (stereo not shown) [Example 51, 3-[3-(2,5-dichlorophenyl)-2,3-dihydro-1H-inden-5-yl]-N-[2-(dimethylamino)ethyl]benzamide] | 89%
30 | O=C(NCCO)c1cccc(-c2ccc3c(c2)C(c2ccc(Cl)cc2Cl)CC3)c1 (stereo not shown) [Example 64, 3-[3-(2,4-dichlorophenyl)-2,3-dihydro-1H-inden-5-yl]-N-(2-hydroxyethyl)benzamide] | 84%
31 | O=C(NC(CO)CO)c1cccc(-c2ccc3c(c2)C(c2ccc(Cl)cc2Cl)CC3)c1 (stereo not shown) [Example 65, 3-[3-(2,4-dichlorophenyl)-2,3-dihydro-1H-inden-5-yl]-N-[2-hydroxy-1-(hydroxymethyl)ethyl]benzamide] | 91%
32 | C[S+]([O-])CCNC(=O)c1cccc(-c2ccc3c(c2)C(c2ccc(Cl)cc2Cl)CC3)c1 (stereo not shown) [Example 66, 3-[3-(2,4-dichlorophenyl)-2,3-dihydro-1H-inden-5-yl]-N-[2-(methylsulfinyl)ethyl]benzamide] | 88%
33 | CS(=O)(=O)CCNC(=O)c1cccc(-c2ccc3c(c2)C(c2ccc(Cl)cc2Cl)CC3)c1 (stereo not shown) [Example 67, 3-[3-(2,4-dichlorophenyl)-2,3-dihydro-1H-inden-5-yl]-N-[2-(methylsulfonyl)ethyl]benzamide] | 73%
34 | N#CCCNC(=O)c1cccc(-c2ccc3c(c2)C(Oc2ccc(Cl)cc2Cl)CC3)c1 (stereo not shown) [Example 73, N-(2-cyanoethyl)-3-[3-(2,4-dichlorophenoxy)-2,3-dihydro-1H-inden-5-yl]benzamide] | 73%
